Measurements: ChEMBL document CHEMBL6078711, “Design, synthesis, and biological evaluation of steroidal indole derivatives as membrane-targeting antibacterial candidates” (Eur J Med Chem, 2025)
In brackets after ≈: the same amount, converted by molar mass. Activity calls are given as the source filed them. No cut-off for these calls is given here.

How the values were obtained:
Staphylococcus aureus [1] = assay: Antibacterial activity against Methicillin-resistant Staphylococcus aureus CGMCC1.8721 infected in mouse skin infection model assessed as reduction in bacterial load at 5 mg/kg, sc; format: functional; design: scale not given: the % may be the effect or the level left
Staphylococcus aureus [2] = assay: Antibacterial activity against Methicillin-resistant Staphylococcus aureus CGMCC1.8721 infected in mouse skin infection model assessed as reduction in bacterial clones at 5 to 10 mg/kg, sc; format: functional, organism-based; settings: dose 5-10 mg/kg
Staphylococcus aureus [3] = assay: Antibacterial activity against Methicillin-resistant Staphylococcus aureus CGMCC1.8721 infected in mouse skin infection model assessed as reduction in bacterial load at 10 mg/kg, sc; format: functional; design: scale not given: the % may be the effect or the level left
Staphylococcus aureus [4] = assay: Antibacterial activity against Staphylococcus aureus CGMCC1.8721 assessed as reduction in bacterial growth; format: functional
Staphylococcus aureus [5] = assay: Antibacterial activity against methicillin-resistant Staphylococcus aureus ATCC 43300 assessed as reduction in bacterial growth in presence of Fe3+; format: functional
Staphylococcus aureus [6] = assay: Antibacterial activity against Staphylococcus aureus CGMCC1.8721 assessed as reduction in bacterial growth in presence of Ca2+; format: functional
Staphylococcus aureus [7] = assay: Antibacterial activity against methicillin-resistant Staphylococcus aureus CGMCC 1.12409 assessed as reduction in bacterial growth in presence of K+; format: functional
Staphylococcus aureus [8] = assay: Antibacterial activity against Staphylococcus aureus CGMCC1.8721 assessed as reduction in bacterial growth in presence of phosphatidylglycerol; format: functional
Staphylococcus aureus [9] = assay: Bactericidal activity against methicillin-resistant Staphylococcus aureus ATCC 33591 assessed as reduction in bacterial growth; format: functional
Staphylococcus aureus [10] = assay: Bactericidal activity against Staphylococcus aureus CGMCC1.8721 assessed as reduction in bacterial growth; format: functional
Staphylococcus aureus [11] = assay: Antibiofilm activity against Staphylococcus aureus CGMCC1.8721 assessed as inhibition of biofilm formation at 8 times MIC; format: functional
Cell membrane [12] = assay: Disruption of cell membrane integrity in Staphylococcus aureus CGMCC1.8721 assessed as appearance of wrinkled cell surface at 1 to 4 times MIC by scanning electron microscopic analysis; format: subcellular
A549 = assay: Cytotoxicity against human A549 cells assessed as cell viability upto 40 uM relative to control; format: functional; settings: up to 40 µM
Cell membrane [13] = assay: Disruption of cell membrane integrity in Staphylococcus aureus CGMCC1.8721 assessed as appearance of uneven cell surface at 1 to 4 times MIC by scanning electron microscopic analysis; format: subcellular
Staphylococcus aureus [14] = assay: Antibacterial activity against Staphylococcus aureus CGMCC1.8721 assessed as reduction in bacterial growth in presence of Fe2+; format: functional
Staphylococcus aureus [15] = assay: Antibacterial activity against methicillin-resistant Staphylococcus aureus ATCC 33591 assessed as reduction in bacterial growth in presence of Na+; format: functional
Staphylococcus aureus [16] = assay: Antibiofilm activity against Staphylococcus aureus CGMCC1.8721 assessed as inhibition of biofilm formation; format: functional, organism-based
Staphylococcus aureus [17] = assay: Antibacterial activity against Staphylococcus aureus CGMCC1.8721 assessed as reduction in metabolic activity at 4 times MIC by Alamar Blue assay; format: functional; design: scale not given: the % may be the effect or the level left
Staphylococcus aureus [18] = assay: Antibacterial activity against Staphylococcus aureus CGMCC1.8721 assessed as reduction in bacterial growth in presence of Na+; format: functional
Staphylococcus aureus [19] = assay: Antibacterial activity against Staphylococcus aureus CGMCC1.8721 assessed as reduction in bacterial growth at 4 to 8 times MIC measured after 24 hrs by time kill assay; format: functional, organism-based
Staphylococcus aureus [20] = assay: Antibacterial activity against Staphylococcus aureus CGMCC1.8721 assessed as reduction in bacterial growth in presence of peptidoglycan; format: functional, organism-based
Staphylococcus aureus [21] = assay: Antibacterial activity against Staphylococcus aureus CGMCC1.8721 assessed as induction of ROS production at 1 to 4 times MIC by DCFH-DA staining based flow cytometry analysis; format: functional, organism-based

CCNCc1ccc2[nH]cc(C[C@@H](C)[C@H]3CC[C@H]4[C@@H]5CC[C@@H]6C[C@H](O)CC[C@]6(C)[C@H]5CC[C@]34C)c2c1
Activity (Staphylococcus aureus [1]): 67%
AC30 (Staphylococcus aureus [2]): Active
Activity (Staphylococcus aureus [3]): 76%
MIC (Staphylococcus aureus [4]): 1 µg/mL (≈ 2.04 µM)
MIC (Staphylococcus aureus [5]): 1 µg/mL
MIC (Staphylococcus aureus [6]): 1 µg/mL
MIC (Staphylococcus aureus [7]): 2 µg/mL
MIC (Staphylococcus aureus [8]): 32 µg/mL
MBC (Staphylococcus aureus [9]): 4 µg/mL (≈ 8.15 µM)
MBC (Staphylococcus aureus [10]): 2 µg/mL (≈ 4.08 µM)
inhibition (INH) (Staphylococcus aureus [11]): 92.4%
Activity (Cell membrane [12]): Active
Activity (A549): >70%
Activity (Cell membrane [13]): Active
MIC (Staphylococcus aureus [14]): 1 µg/mL
MIC (Staphylococcus aureus [15]): 2 µg/mL
Activity (Staphylococcus aureus [16]): Dose-dependent-effect
Activity (Staphylococcus aureus [17]): 75%
MIC (Staphylococcus aureus [18]): 1 µg/mL
Activity (Staphylococcus aureus [19]): Active
Activity (Staphylococcus aureus [20]): inactive
Activity (Staphylococcus aureus [21]): Active
